1 compound from ChEMBL document CHEMBL5647700, “Crystal structure of an angiogenesis inhibitor bound to the FGF receptor tyrosine kinase domain” (EMBO J, 1998) can be followed below.

Data set [1] in a line: Toxicity in bFGF-induced Swiss Webster mouse angiogenesis model at 1 mg/kg, ip starting 3 days prior to or on the day of pellet implantation and then daily until day 5 post-implantation by Corneal neovascularization assay. The class given is organism-based. As to conditions: in vivo, 192 h, time 8 day.
The nature of data set [2]: Inhibition of PKCalpha/beta/gamma isotype mixtures (unknown origin) in presence of ATP. Further details: species or system Homo sapiens.
The subject of data set [3] is Mus musculus. As to the kind of experiment: Inhibition of FGF-induced neovascularization in Swiss Webster mouse angiogenesis model at 1 mg/kg, ip starting 3 days prior to or on the day of pellet implantation and then daily until day 5 post-implantation by Corneal neovascularization assay. The data set is classed as functional. As to conditions: 192 h, time 8 day.
Data set [4] has as its target Dual specificity mitogen-activated protein kinase kinase; MEK1/2 (Homo sapiens, UniProt P36507+Q02750). As to the kind of experiment: Inhibition of MEK (unknown origin) in presence of ATP. The class given is protein assay.
The target in data set [5] is Proto-oncogene tyrosine-protein kinase Src (Homo sapiens, UniProt P12931). As to the kind of experiment: Inhibition of c-SRC (unknown origin) in presence of ATP.
Sequence of Proto-oncogene tyrosine-protein kinase Src (P12931 2-536 limits assumed): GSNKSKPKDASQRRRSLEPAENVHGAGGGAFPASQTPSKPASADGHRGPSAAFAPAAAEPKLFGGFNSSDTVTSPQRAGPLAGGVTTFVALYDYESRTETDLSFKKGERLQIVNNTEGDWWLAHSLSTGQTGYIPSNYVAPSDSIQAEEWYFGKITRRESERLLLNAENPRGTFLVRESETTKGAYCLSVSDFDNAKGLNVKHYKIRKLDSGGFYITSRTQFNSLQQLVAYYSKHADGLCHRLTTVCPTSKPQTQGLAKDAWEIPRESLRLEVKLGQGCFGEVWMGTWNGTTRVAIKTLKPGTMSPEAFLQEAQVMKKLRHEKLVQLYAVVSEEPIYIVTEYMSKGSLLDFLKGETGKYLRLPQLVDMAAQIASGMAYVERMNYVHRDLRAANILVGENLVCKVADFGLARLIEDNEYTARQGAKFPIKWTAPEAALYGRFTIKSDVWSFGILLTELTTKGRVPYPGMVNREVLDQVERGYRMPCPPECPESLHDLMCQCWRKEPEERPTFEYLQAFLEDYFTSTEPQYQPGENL
The subject of data set [6] is Mus musculus. Description: Inhibition of VEGF-induced neovascularization in Swiss Webster mouse angiogenesis model at 2 mg/kg, ip starting 3 days prior to or on the day of pellet implantation and then daily until day 5 post-implantation by Corneal neovascularization assay. The class given is functional. The settings on record: 192 h, time 8 day.
Data set [7] in a line: Inhibition of PDGFR cytoplasmic domain (unknown origin) in presence of ATP. Further details: species or system Homo sapiens.
Data set [8] in a line: Inhibition of VEGFR2 (unknown origin) expressed in mouse NIH/3T3 cells assessed as reduction in aFGF and heparin-induced autophosphorylation incubated for 5 mins before stimulation for 5 mins with aFGF and heparin by SDS-PAGE and immunoblot method. The settings on record: NIH3T3. The class given is cell-based.
Data set [9] has as its target Fibroblast growth factor receptor 1 (Mus musculus, UniProt P16092). Description: Inhibition of FGFR1 autophosphorylation in mouse NIH/3T3 cells assessed as reduction in aFGF and heparin-induced autophosphorylation incubated for 5 mins before stimulation for 5 mins with aFGF and heparin by SDS-PAGE and immunoblot method. The data set is classed as cell-based. (Immunoblotting shows a protein as a band on a membrane.)

Structures are written as SMILES.

Sequence of Fibroblast growth factor receptor 1 (P16092 whole entry): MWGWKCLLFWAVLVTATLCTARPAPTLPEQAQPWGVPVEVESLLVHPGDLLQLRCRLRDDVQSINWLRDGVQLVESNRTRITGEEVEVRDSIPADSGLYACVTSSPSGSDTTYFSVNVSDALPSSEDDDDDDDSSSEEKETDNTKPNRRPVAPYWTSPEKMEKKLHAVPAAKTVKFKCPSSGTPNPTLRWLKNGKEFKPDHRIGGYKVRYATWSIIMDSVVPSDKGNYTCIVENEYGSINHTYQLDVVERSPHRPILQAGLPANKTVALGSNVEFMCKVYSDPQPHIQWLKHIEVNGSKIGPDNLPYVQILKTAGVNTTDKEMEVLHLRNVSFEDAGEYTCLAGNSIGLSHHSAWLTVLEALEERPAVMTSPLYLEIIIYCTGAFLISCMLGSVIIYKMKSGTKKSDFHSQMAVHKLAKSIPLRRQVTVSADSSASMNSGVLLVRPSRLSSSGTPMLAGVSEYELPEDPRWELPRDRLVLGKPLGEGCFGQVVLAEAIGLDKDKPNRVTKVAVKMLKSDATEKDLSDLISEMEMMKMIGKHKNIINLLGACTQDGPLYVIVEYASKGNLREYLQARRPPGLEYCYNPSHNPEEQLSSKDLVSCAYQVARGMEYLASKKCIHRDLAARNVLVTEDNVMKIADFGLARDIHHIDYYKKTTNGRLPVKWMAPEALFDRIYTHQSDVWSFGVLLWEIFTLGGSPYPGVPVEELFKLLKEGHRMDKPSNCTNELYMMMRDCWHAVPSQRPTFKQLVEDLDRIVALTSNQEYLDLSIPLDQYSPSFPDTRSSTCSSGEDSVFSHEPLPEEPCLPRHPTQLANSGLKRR

`CCN(CC)CCCCNc1ncc2cc(-c3cc(OC)cc(OC)c3)c(NC(=O)NC(C)(C)C)nc2n1` [PD-173074]: the Activity entry in data set [1] was “Non-Toxic”. Besides, the IC50 in data set [2] is > 50 µM; in data set [4], > 50 µM; in data set [5], 19.8 µM; in data set [7], 17.6 µM; in [8], 0.1 µM; in [9] it was 0.001 µM. For the same compound, in data set [3], the inhibition in vivo at 1 mg/kg was found to be 86%. The compound further yielded an inhibition in vivo at 2 mg/kg in data set [6] of 81%.

Usually IC50 stands for the concentration that inhibits the measured activity by half. As a reminder, the inhibition in vivo is how much of the control response was suppressed. The low end stands for a response near the control, the high end for a response far below the control.
